Results on 16 compounds are retold here after ChEMBL document CHEMBL1155399, “Novel glitazones: design, synthesis, glucose uptake and structure-activity relationships” (Bioorg Med Chem Lett, 2010).

Assay [1] can be described thus: Antidiabetic activity in Wistar rat hemidiaphragm assessed as glucose uptake at 2 mg after 45 mins by GOD/POD enzymatic method in absence of insulin. The following applies: Diaphragm.
Assay [2] in a line: Antidiabetic activity in Wistar rat hemidiaphragm assessed as glucose uptake at 2 mg after 45 mins by GOD/POD enzymatic method in presence of insulin. The following applies: Diaphragm.

As for `COc1cc(/C=C2/SC(=S)NC2=O)ccc1OCC(=O)NCc1ccccc1`, the Activity in assay [1] stood at 10.2 mg/g; in assay [2] it was 26.8 mg/g.
Taken in the same sequence, the figures for `COc1ccc(NC(=O)COc2ccc(CC3SC(=S)NC3=O)cc2OC)cc1` (configuration not stated) were 9.5 mg/g and 28.2 mg/g.
Take `COc1cc(/C=C2/SC(=O)NC2=O)ccc1OCC(=O)NCc1ccccc1`: the Activity in assay [1] stood at 10.5 mg/g; in assay [2], 31.8 mg/g.
Consider `COc1cc(/C=C2/SC(=S)NC2=O)ccc1OCC(=O)NC1CCCCC1`, for which the figures for the Activity in assay [1] and in assay [2] were 11.8 mg/g and 30 mg/g, respectively.
For the compound `COc1cc(/C=C2/SC(=S)NC2=O)ccc1OCC(=O)Nc1ccccc1`, the Activity was 8 mg/g in assay [1] and 24.8 mg/g in assay [2].
For the compound `COc1cc(/C=C2/SC(=O)NC2=O)ccc1OCC(=O)Nc1ccccc1[N+](=O)[O-]`, the results for the Activity in assay [1] and in assay [2] were 9.75 mg/g and 26.2 mg/g, respectively.
On the same counts, the results for `COc1ccc(NC(=O)COc2ccc(/C=C3/SC(=S)NC3=O)cc2OC)cc1` are 9.75 mg/g and 33.5 mg/g.
Consider `CN(CCOc1ccc(CC2SC(=O)NC2=O)cc1)c1ccccn1` (configuration not stated), for which the Activity in assay [1] was found to be 11.2 mg/g; in assay [2], 35.2 mg/g.
On to `COc1cc(/C=C2/SC(=O)NC2=O)ccc1OCC(=O)Nc1ccccn1`, for which the Activity in assay [1] came out at 12.2 mg/g; in assay [2] it was 32 mg/g.
On the same counts, the results for `COc1ccc(NC(=O)COc2ccc(CC3SC(=O)NC3=O)cc2OC)cc1` (configuration not stated) are 11.2 mg/g and 30.2 mg/g.
Taken in the same sequence, the figures for `COc1ccc(NC(=O)COc2ccc(/C=C3/SC(=O)NC3=O)cc2OC)cc1` were 10.8 mg/g and 36.2 mg/g.
Regarding `COc1cc(/C=C2/SC(=S)NC2=O)ccc1OCC(=O)Nc1ccccn1`, the Activity in assay [1] came to 9.75 mg/g; in assay [2], 30 mg/g.
On to `COc1cc(/C=C2/SC(=O)NC2=O)ccc1OCC(=O)NC1CCCCC1`, for which the Activity in assay [1] is 9.5 mg/g; in assay [2], 27.2 mg/g.
Turning to `COc1cc(/C=C2/SC(=O)NC2=O)ccc1OCC(=O)Nc1ccccc1C(N)=O`, the Activity in assay [1] is 10 mg/g; in assay [2] it was 29 mg/g.
For the compound `COc1cc(/C=C2/SC(=S)NC2=O)ccc1OCC(=O)Nc1ccccc1[N+](=O)[O-]`, the Activity amounted to 9 mg/g in assay [1] and 25.5 mg/g in assay [2].
`COc1cc(/C=C2/SC(=O)NC2=O)ccc1OCC(=O)Nc1ccccc1`: the Activity in assay [1] was 12 mg/g; in assay [2] it was 28.5 mg/g.
